Reference: patent publication US20090062255A1, “TUMOR-TARGETING EVALUATION METHODOLOGY AND COMPOUNDS RELATED THERETO” (THALLION PHARMACEUTICALS INC., priority 2007, published 2009)
Several values for one entry are separate records, joined by “and”; a condition that tells them apart may be missing. Equal entries are not always repeated.

Tests used:
[1] = ECO-4601 concentrations in plasma and tissues, rat C6 orthotopic brain tumors; assay type: in vivo; details: individual rats
Experimental: Rat C6 glioma cells were purchased from the American Type Culture Collection (Manessa, Va.) and grown in Dulbecco's modified Eagle's medium (DMEM) supplemented with 10% FBS, 125 U/mL penicillin G, 125 μg/mL streptomycin sulfate, and 2.2 μg/mL amphotericin B (Fungizone). All culture reagents were obtained from Gibco BRL (Invitrogen Burlington, ON, Canada). Cultures were grown in monolayers and maintained at 37° C. in a humidified atmosphere of 5% CO2. Upon reaching confluency, spheroids were prepared using the hanging drop method previously described by Del Duca et al. ((2004) J. Neurooncol 67, p 295). Briefly, 20 μl drops of DMEM containing 15,000 cells each were suspended from the lids of culture dishes and the resulting aggregates were transferred to culture dishes base-coated with agar after 72 hours. The resulting spheroids were adequate for in vivo implantation after 48 hours of incubation on agar.
Male, Sprague-Dawley rats (250-300 g) (Charles River Canada, St Constant, QC) were anesthetized with 50 mg/kg ketamine and 10 mg/kg xylazine. The right cortical surface in the parietal-occipital region was exposed by craniectomy using a high-powered drill (DREMEL, USA) and the underlying dura and its vessels were carefully removed under a surgical microscope. A piece of the cortex was removed to expose the underlying white matter and a single speroid containing rat C6 tumor cells was placed into the surgical defect. The craniectomy was covered with bone wax (Ethicon, Peterborough, Canada) and the overlying skin sutured. Following recovery from anesthesia, the animals were fed and had access to water ad libitum.
Following completion of in vivo studies, animals were sacrificed by anesthetic overdose and decapitated. Brain, tumor, and liver were snap-frozen in liquid nitrogen and stored frozen (−70° C.±10° C.). For blood samples, each blood sample was collected into a K2-EDTA tube and kept on wet ice for a maximum of 30 minutes. Blood samples were centrifuged under refrigeration (2 to 8° C.) for 10 minutes at 1,500 g (RCF). A volume of 25 μL of aqueous 4% w/v L-ascorbic acid was added to a volume of 225 μL of rat plasma in a clean tube, and the samples were thoroughly mixed by inversion. A volume of 125 uL of the resulting mixture was transferred to a separate tube for bioanalysis, while the remaining mixture was maintained as a backup, and both the bioanalysis and back-up portions were frozen on dry ice and stored frozen (−70° C.±10° C.).
Rat plasma (50 μL) was mixed with 500 μL of acetone containing 100 ng/mL of the internal standard (Compound 2). The mixture was vortexed for 20 seconds, incubated 10 min at RT and centrifuged at 12,000×g for 10 minutes. The supernatants were transferred into HPLC injection vials and 20 μL were analyzed by tandem liquid chromatography/mass spectrometry. The chromatography was achieved on a Luna C18 column (30×4.6 mm, 5 μm particles; Phenomenex, Torrance, Calif.) with a mobile phase consisting of 100% methanol: 0.5% formic acid in water (85:15) at a flow rate of 1 mL/min. Flow was split 1:10 prior to introduction into the ESI source. The nebulization was assisted by and octagonal jet stream of nitrogen heated at […] and set at a flow of 4 L/min. The ion source voltage (ISV) was at 4000 V in positive mode, declustering potential (OR-QO) was set to 20 V, and the collision energy (Elab) was set to 25 V. The mass transition monitered for ECO-4601 and the internal standard were m/z 463→271 and 477→273, respectively. […]

[2] = test system: 9L gliosarcoma cell line; assay: MTT cytotoxicity, 9L cell line; assay type: cell-based; details: 96 h, Rat
Experimental: (§1) The cytotoxic activity of Compound 1 was further evaluated using a panel of brain tumor cell lines. This study was performed in collaboration with INSERM (Grenoble, France). Tumor cells (5,000 to 10,000 cells per well depending on their doubling time) were plated in 96-well flat-bottom plates and incubated for 24 hours before treatment. Tumor cells were then incubated for 96 hours with seven different concentrations of Compound 1: […], 0.01, and 0.001 μM. The in vitro cytotoxic activity was determined by a standard MTT assay.

[3] = test system: GHD astrocytoma cell line; assay: MTT cytotoxicity, GHD cell line; assay type: cell-based; details: 96 h, Human
Experimental: as §1

Compound: CC(C)=CCC/C(C)=C/CC/C(C)=C/CN1C(=O)c2cccc(O)c2Nc2c(O)cc(O)cc21 [Compound 1, 10-farnesyl-4,6,8-trihydroxy-5,10-dihydrodibenzo[b,e][1,4]diazepin-11-one]
- Ratio Tumor/Brain [1]: 10.1 and 2.1 and 5.2 and 11.30 and 3.5
- Tumor [1]: 2701 ng/g and 239 ng/g and 509 ng/g and 2891 ng/g and 1145 ng/g
- Brain ([1]; C6 orthotopic brain tumor): 249 ng/g and 115 ng/g and 98 ng/g and 254 ng/g and 327 ng/g
- Liver ([1]; C6 orthotopic brain tumor): 994 ng/g and 164 ng/g and 1083 ng/g and 2767 ng/g and 123 ng/g
- Pasma ng/mL ([1]; C6 orthotopic brain tumor): 13,088 ng/mL and 2,657 ng/mL and 5,727 ng/mL and 10,212 ng/mL and 1,177 ng/mL
- IC50 [2]: 8.3 ± 3.8 µM
- IC50 [3]: 6.5 ± 2.9 µM
